From patent US9393221B2, “Methods and compounds for reducing intracellular lipid storage” (THE GENERAL HOSPITAL CORPORATION, priority 2011, dated 2016)
Structures can show the parent of a compound that is named as a salt.
For Z-score in this document: test concentration or dose not given here.

These molecules were tested on ATGL-KO iPSCs (assay: High throughput iPSC chemical screening, Oil Red O (ORO) lipid accumulation). Conditions: glycolytic switch compounds.
Type: cell-based, mouse
With `CC1CC(OC(=O)c2ccccc2O)CC(C)(C)C1` (stereo not drawn) [Homosalate] the “Rank in normalized ORO score from screen” value was 320.

Same assay, conditions: normalized ORO level vs DMSO-treated cells; compound present during 7 days differentiation, 96-well; negative = decrease in lipid accumulation
Work on `C[C@@H]1CC[C@@]2(OC1)O[C@H]1C[C@H]3[C@@H]4CC[C@@]5(C)C[C@@H](O)CC[C@]5(C)[C@H]4CC(=O)[C@]3(C)[C@H]1[C@@H]2C` [Hecogenin] yielded a Z-score of 0.9208.
In the case of `CO[C@H](C)[C@](O)(C(=O)OCC1=CCN2CC[C@H](O)[C@@H]12)C(C)C` [Heliotrine], the Z-score is reported as −1.2812.
`C[N+]1(C)CCOC(O)(c2ccc(-c3ccc(C4(O)C[N+](C)(C)CCO4)cc3)cc2)C1.[Br-].[Br-]` (stereo not drawn) [Hemicholinium bromide] showed a Z-score of 2.91.
`CC(N)CCCC(C)(C)O` (stereo not drawn) [Heptaminol hydrochloride] was tested, and the Z-score was −0.2987.
`COc1ccc([C@@H]2CC(=O)c3c(O)cc(O)cc3O2)cc1O` [Hesperetin] gave a Z-score of −1.3358.
`COc1ccc([C@@H]2CC(=O)c3c(O)cc(O[C@@H]4O[C@H](CO[C@@H]5O[C@@H](C)[C@H](O)[C@@H](O)[C@H]5O)[C@@H](O)[C@H](O)[C@H]4O)cc3O2)cc1O` [Hesperidin] was tested, and the Z-score was 2.254.
Molecule `C[N+](C)(C)CCCCCC[N+](C)(C)C.O.O.[Br-].[Br-]` [Hexamethonium dibromide dihydrate] has a Z-score of −0.5997.
Work on `CC[C@H](c1ccc(O)cc1)[C@@H](CC)c1ccc(O)cc1` [Hexestrol] yielded a Z-score of −1.0339.
With `CCCCC(CC)CN1CN(CC(CC)CCCC)CC(C)(N)C1` (stereo not drawn) [Hexetidine] the Z-score was 1.396.
Molecule `CC(CNC1CCCCC1)OC(=O)c1ccccc1` (stereo not drawn) [Hexylcaine hydrochloride] has a Z-score of 0.687.
Molecule `CN1CCC2=C[C@H](O)[C@H]3OC(=O)c4cc5c(cc4[C@H]3[C@@H]21)OCO5` [Hippeastrine hydrobromide] has a Z-score of −1.1441.
With `CN1CCCN(C(c2ccccc2)c2ccc(Cl)cc2)CC1` (stereo not drawn) [Homochlorcyclizine dihydrochloride] the Z-score was −0.8178.
Molecule `CC1CC(OC(=O)c2ccccc2O)CC(C)(C)C1` (stereo not drawn) [Homosalate] has a Z-score of −0.7744.
Molecule `CCN(CC)CCNc1ccc(CO)c2sc3ccccc3c(=O)c12` [Hycanthone] has a Z-score of 20.1467.
With `NNc1nncc2ccccc12` [Hydralazine hydrochloride] the Z-score was 9.342.
Molecule `COc1ccc2c(c1OC)C(=O)O[C@@H]2[C@H]1c2cc3c(cc2CCN1C)OCO3` [Hydrastine hydrochloride] has a Z-score of −0.3277.
Molecule `CN1CCc2cc3c(cc2C1O)OCO3` (stereo not drawn) [Hydrastinine hydrochloride] has a Z-score of −0.5549.
In the case of `NS(=O)(=O)c1cc2c(cc1Cl)NCNS2(=O)=O` [Hydrochlorothiazide], the Z-score is reported as 1.18.
`C[C@]12CCC(=O)C=C1CC[C@@H]1[C@@H]2[C@@H](O)C[C@@]2(C)[C@H]1CC[C@]2(O)C(=O)CO` [Hydrocortisone base] gave a Z-score of −0.2176.
In the case of `COc1c2c(cc3c1OCO3)CCN(C)C2` [Hydrocotarnine hydrobromide], the Z-score is reported as −0.8038.
`NS(=O)(=O)c1cc2c(cc1C(F)(F)F)NCNS2(=O)=O` [Hydroflumethiazide] was tested, and the Z-score was 0.1855.
In the case of `CC[C@H]1CN2CC[C@H]1C[C@H]2[C@H](O)c1ccnc2ccc(OC)cc12` [Hydroquinine hydrobromide hydrate], the Z-score is reported as 1.2243.
`OCCOCCN1CCN(C(c2ccccc2)c2ccc(Cl)cc2)CC1` (stereo not drawn) [Hydroxyzine dihydrochloride] showed a Z-score of −0.9071.
Molecule `Cc1cc(=O)oc2cc(O)ccc12` [Hymecromone] has a Z-score of −0.7731.
`CN1[C@@H]2CC[C@H]1C[C@@H](OC(=O)[C@H](CO)c1ccccc1)C2` [Hyoscyamine (L)] was tested, and the Z-score was 1.204.
Work on `c1ccc2c(c1)OCC(C1=NCCN1)O2` (stereo not drawn) [Idazoxan hydrochloride] yielded a Z-score of −1.447.
In the case of `O=c1[nH]c(=O)n([C@H]2C[C@H](O)[C@@H](CO)O2)cc1I` [Idoxuridine], the Z-score is reported as −1.0734.
For `O=P1(NCCCl)OCCCN1CCCl` (stereo not drawn) [Ifosfamide], the Z-score was −1.424.
In the case of `O=C(NCNC(=O)NC1C(=O)NC(=O)N1CO)NC1C(=O)NC(=O)N1CO` (stereo not drawn) [Imidurea], the Z-score is reported as 0.2567.
`C[C@@H](O)[C@H]1C(=O)N2C(C(=O)O)=C(SCCN=CN)C[C@H]12` [Imipenem] gave a Z-score of −0.7436.
Work on `CN(C)CCCN1c2ccccc2CCc2ccccc21` [Imipramine hydrochloride] yielded a Z-score of 1.459.
With `CC1Cc2ccccc2N1NC(=O)c1ccc(Cl)c(S(N)(=O)=O)c1` (stereo not drawn) [Indapamide] the Z-score was −0.6747.
`COc1ccc2c(c1)c(CC(=O)O)c(C)n2C(=O)c1ccc(Cl)cc1` [Indomethacin] showed a Z-score of −0.7862.
Molecule `CC(C(=O)O)c1ccc(N2Cc3ccccc3C2=O)cc1` (stereo not drawn) [Indoprofen] has a Z-score of −1.4204.
With `CC(=O)N(CC(C)C(=O)O)c1c(I)cc(I)c(N)c1I` (stereo not drawn) [Iocetamic acid] the Z-score was −1.5742.
`O=C(CCCCC(=O)Nc1c(I)cc(I)c(C(=O)O)c1I)Nc1c(I)cc(I)c(C(=O)O)c1I` [Iodipamide] gave a Z-score of −0.3225.
`CC(=O)N(CC(O)CO)c1c(I)c(C(=O)NCC(O)CO)c(I)c(C(=O)NCC(O)CO)c1I` (stereo not drawn) [Iohexol] gave a Z-score of −1.1016.
For `C[C@H](O)C(=O)Nc1c(I)c(C(=O)NC(CO)CO)c(I)c(C(=O)NC(CO)CO)c1I` [Iopamidol], the Z-score was 1.108.
Work on `CCC(Cc1c(I)cc(I)c(N)c1I)C(=O)O` (stereo not drawn) [Iopanoic acid] yielded a Z-score of −0.7767.
In the case of `COCC(=O)Nc1c(I)c(C(=O)NCC(O)CO)c(I)c(C(=O)N(C)CC(O)CO)c1I` (stereo not drawn) [Iopromide], the Z-score is reported as 0.2481.
Work on `O=C(NCC(O)CO)c1c(I)c(C(=O)NCC(O)CO)c(I)c(N(CCO)C(=O)CO)c1I` (stereo not drawn) [Ioversol] yielded a Z-score of 0.08392.
For `CNC(=O)c1c(I)c(C(=O)NCC(=O)Nc2c(I)c(C(=O)O)c(I)c(C(=O)NCCO)c2I)c(I)c(N(C)C(C)=O)c1I` [Ioxaglic acid], the Z-score was −0.54.
In the case of `CC(C)[N+]1(C)[C@@H]2CC[C@H]1CC(OC(=O)C(CO)c1ccccc1)C2.[Br-]` (stereo partly drawn) [Ipratropium bromide], the Z-score is reported as −0.1032.
`Cc1cc(C(=O)NNCc2ccccc2)no1` [Isocarboxazid] gave a Z-score of 1.91.
With `Clc1ccc(C(Cn2ccnc2)OCc2c(Cl)cccc2Cl)c(Cl)c1` (stereo not drawn) [Isoconazole] the Z-score was −1.2562.
Molecule `COc1ccc2c(c1O)-c1c(OC)c(OC)cc3c1[C@H](C2)N(C)CC3` [Isocorydine (+)] has a Z-score of −0.7668.
Molecule `CC(=O)OCC(=O)[C@@]1(O)CC[C@H]2[C@@H]3CCC4=CC(=O)C=C[C@]4(C)[C@@]3(F)[C@@H](O)C[C@@]21C` [Isoflupredone acetate] has a Z-score of 1.55.
Work on `CNC(C)CCC=C(C)C.CNC(C)CCC=C(C)C.O=C(O)[C@@H](O)[C@H](O)[C@H](O)[C@@H](O)C(=O)O` [Isometheptene mucate] yielded a Z-score of 0.6197.
`NNC(=O)c1ccncc1` [Isoniazid] was tested, and the Z-score was 0.9473.
`CC(C)[N+](C)(CCC(C(N)=O)(c1ccccc1)c1ccccc1)C(C)C` [Isopropamide iodide] was tested, and the Z-score was −0.2928.
`Cc1c(NC(C)C)c(=O)n(-c2ccccc2)n1C.Cl` [Isopyrin hydrochloride] showed a Z-score of 0.0325.
In the case of `CC1=C(/C=C/C(C)=C/C=C/C(C)=C\C(=O)O)C(C)(C)CCC1` [Isotretinoin], the Z-score is reported as −1.1597.
`Cc1cc(NC(=O)C2=C(O)c3ccccc3S(=O)(=O)N2C)no1` [Isoxicam] gave a Z-score of −0.7646.
For `CC(COc1ccccc1)NC(C)C(O)c1ccc(O)cc1` (stereo not drawn) [Isoxsuprine hydrochloride], the Z-score was 0.3014.
For `COC(=O)C1=C(C)NC(C)=C(C(=O)OC(C)C)C1c1cccc2nonc12` (stereo not drawn) [Isradipine], the Z-score was 0.2737.
`CC[C@H](C)[C@H]1O[C@]2(CC[C@@H]1C)C[C@@H]1C[C@@H](C/C=C(\C)[C@@H](O[C@H]3C[C@H](OC)[C@@H](O[C@H]4C[C@H](OC)[C@@H](O)[C@H](C)O4)[C@H](C)O3)[C@@H](C)/C=C/C=C3\CO[C@@H]4[C@H](O)C(C)=C[C@@H](C(=O)O1)[C@]34O)O2` [Ivermectin] gave a Z-score of 0.9419.
Work on `CO[C@@H]1[C@@H](O[C@@H]2O[C@H](C)[C@@H](O[C@H]3C[C@@](C)(O)[C@@H](OC(=O)CC(C)C)[C@H](C)O3)[C@H](N(C)C)[C@H]2O)[C@@H](CC=O)C[C@@H](C)[C@@H](O)/C=C/C=C/C[C@@H](C)OC(=O)C[C@H]1OC(C)=O` [Josamycin] yielded a Z-score of −0.5964.
`O=c1c(O)c(-c2ccc(O)cc2)oc2cc(O)cc(O)c12` [Kaempferol] was tested, and the Z-score was −0.0374.
`NC[C@H]1O[C@H](O[C@H]2[C@H](O)[C@@H](O[C@H]3O[C@H](CO)[C@@H](O)[C@H](N)[C@H]3O)[C@H](N)C[C@@H]2N)[C@H](O)[C@@H](O)[C@@H]1O.O=S(=O)(O)O` [Kanamycin A sulfate] showed a Z-score of 2.436.
`CCN1C[C@]2(C)CC[C@H](O)[C@]34C1[C@@H](C[C@H]23)[C@@]1(O)C[C@H](OC)[C@H]2C[C@@H]4[C@@H]1[C@H]2O` [Karakoline] showed a Z-score of −1.4178.
Molecule `COC1=CC(=O)O[C@@H](/C=C/c2ccccc2)C1` [Kawain] has a Z-score of −0.5048.
With `CC(=O)N1CCN(c2ccc(OCC3COC(Cn4ccnc4)(c4ccc(Cl)cc4Cl)O3)cc2)CC1` (stereo not drawn) [Ketoconazole] the Z-score was 1.224.
Work on `CC(C(=O)O)c1cccc(C(=O)c2ccccc2)c1` (stereo not drawn) [Ketoprofen] yielded a Z-score of −0.219.
With `O=C(c1ccccc1)c1ccc2n1CCC2C(=O)O` (stereo not drawn) [Ketorolac tromethamine] the Z-score was −0.8373.
`CN1CCC(=C2c3ccccc3CC(=O)c3sccc32)CC1` [Ketotifen fumarate] showed a Z-score of 0.5681.
In the case of `COc1c2occc2c(OC)c2c(=O)cc(C)oc12` [Khellin], the Z-score is reported as −0.1533.
Work on `Cl.OC1CCCCC1N1CCC(c2ccccc2)CC1` (stereo not drawn) [L(−)-vesamicol hydrochloride] yielded a Z-score of −1.6146.
Molecule `CC(CCc1ccccc1)NCC(O)c1ccc(O)c(C(N)=O)c1` (stereo not drawn) [Labetalol hydrochloride] has a Z-score of −1.5017.
Work on `O=C(O)[C@H](O)[C@@H](O)[C@H](O[C@@H]1O[C@H](CO)[C@H](O)[C@H](O)[C@H]1O)[C@H](O)CO` [Lactobionic acid] yielded a Z-score of −0.5092.
`CC(=O)O[C@H]1C[C@H](O[C@H]2[C@@H](O)C[C@H](O[C@H]3[C@@H](O)C[C@H](O[C@H]4CC[C@@]5(C)[C@H](CC[C@@H]6[C@@H]5C[C@@H](O)[C@]5(C)[C@@H](C7=CC(=O)OC7)CC[C@]65O)C4)O[C@@H]3C)O[C@@H]2C)O[C@H](C)[C@H]1O[C@@H]1O[C@H](CO)[C@@H](O)[C@H](O)[C@H]1O` [Lanatoside C] was tested, and the Z-score was −1.0291.
`Cc1c(OCC(F)(F)F)ccnc1C[S+]([O-])c1nc2ccccc2[nH]1` (stereo not drawn) [Lansoprazole] was tested, and the Z-score was −0.4696.
